In patent US20090042783A1, “APO E ANALOGS AND METHODS FOR THEIR USE” (priority 2004, published 2009):
Marks after values point to notes of the source that are not given here.

Columns and labels:
[1] = tested on: mice infected with C. rodentium; assay: C. rodentium colitis; assay type: in vivo; settings: for Inhibition of mortality vs water alone: 1% L-Arg in drinking water; for Colon wt (% Total Body wt) / Histology Score / Body wt (% Total Body wt): 10 days; for Body wt (% Total Body wt): 0.1% BEC or 2.5% DFMO
Source text: C. rodentium colitis: Of the two existing mouse models (Gobert A P et al., 2004; Cheng Y. et al., 2003), the C. rodentium model was selected because it produces a Th1-predominant mucosal inflammation that has histologic changes similar to human IBD (Higgins L M et al., 1999). In this model, mice are infected by oral gavage with C. rodentium (Gobert A P et al., 2004), a gram negative pathogenic bacterium that is the rodent equivalent of enteropathogenic E. coli that causes diarrhea in humans.
Since arginase I and iNOS were both abundantly expressed in the colitis tissues and L-Arg was completely metabolized, we investigated the effect of administration of 1% L-Arg in the drinking water. In wild type (WT) mice, C. rodentium colitis induced a high level of mortality that began on day 9 post-infection (FIG. 31A). In WT animals treated with L-Arg, mortality was inhibited by 42% and 62% compared to mice receiving water alone, after 12 and 14 days of infection, respectively (FIG. 31A). By Cox regression analysis, WT mice treated with L-Arg had only a 31% hazard of death compared with mice receiving water alone (p<0.0009). In iNOS^−/− mice, no deaths were observed, with or without L-Arg (FIG. 31A). […] Note that the weight loss of WT mice is underestimated, since only the weights of animals still alive could be included. […] There was an additive effect of iNOS deletion and L-Arg administration, with a 68% decrease in colon weight. Neither iNOS deletion nor L-Arg treatment affected colon weight in uninfected control mice. Importantly, these changes were closely paralleled by changes in colon histology (FIG. 32).
In uninfected control mice, BEC or DFMO had no effect (Table I). […] In fact, experiments had to be terminated early at 10 days post-infection, because of deaths and severe disease at this point.

mice with DSS colitis = assay: Dextran sulfate sodium (DSS) colitis; assay type: in vivo, mouse
Source text: This model was selected because it has become commonly accepted as a mouse model of colitis and is quite practical to employ, since it simply involves adding DSS to the drinking water (Moteau O. et al., 2000, Williams K L et al. 2001, Andres P G et al., 2000, Mahler M. et al., 1998, Tesser T G et al., 1998).

peritoneal macrophages = assay: Peritoneal macrophage production of NO, TNFα and IL-6 induced by MOG or LPS/IFN-γ; assay type: cell-based, mouse
Description: For this purpose, three mice with clinical scores of 0 and three with clinical scores of 4 at 30 dpi (day post-immunization) were used for preparation of peritoneal macrophage cultures. Macrophages were collected after peritoneal lavage with 3 ml heparin (10 U/ml)-containing PBS and then seeded to 96-well microplates at a density of 1×10^5 cells/well in Dulbecco's MEM containing 10% fetal bovine serum, 2 mM L-glutamine serum, 1% HEPES and 100 U/ml penicillin and 100 μg/ml streptomycin, 37° C. in a humidified incubator with 5% CO2. 24 h later, the serum-containing medium was removed and cells were washed once with serum-free medium. To examine the differentiated response of macrophage to immune stimulators, macrophages obtained from mice with clinical scores of 0 or 4 were exposed to serial concentrations of IFN-γ/LPS or MOG35-55 peptide. […] Media were collected at 45 h or 72 h, and analyzed by ELISA for […] and IL-6 or for nitric oxide (NO) as detailed below.
As the stable end product of nitric oxide release, nitrite levels in conditioned media were determined by injecting 50 μl media sample into a Sievers 280 NOA analyzer (Boulder, Colo., USA). Total protein (μg/well) was measured using the BCA method (Pierce, Rockford, Ill., USA) according to manufacturer's instructions with BSA as standard. BCA values were measured using a Molecular Devices Thermomax Microplate Reader (Menlo Park, Calif., USA) at OD562. Nitric oxide levels ere expressed as μM NO2—/mg protein.
For cytokine assays, supernatants were collected 45 h after […]/LPS or MOG treatments and quantitative ELISAs using selected pairs of monoclonal antibodies (as recommended by the manufacturer Biosource) were performed to quantify the cytokines, TNF-α and IL-6. For TNF-α ELISA, 96-well ELISA plates were pre-coated with rabbit anti-mouse polyclonal to TNF-α as capture antibodies for 18 h at 2-8° C. and then blocked for 2 h at room temperature. The wells were incubated with samples or mouse TNF-α standards. Following incubation for 2 h at room temperature, the wells were washed, after which hamster anti-mouse TNF-α biotinylated secondary antibody and horseradish peroxidase conjugate were added. Tetramethylbenzidine (TMB) solution was then added, and peroxidase-catalyzed color change was stopped by acidification with 2 NH2SO4. The plates were scanned at wavelength 450 nm and the absorbance were measured. The results are expressed as the mean concentration (pg/ml) ±SEM.
For IL-6 ELISA, rat anti-mouse monoclonal to IL-6 was used as capture antibody, and biotinylated rat anti-mouse monoclonal to IL-6 as detection antibody. The rest of procedure is identical to that of TNF-α ELISA.

[2] = tested on: C57BL/6J mice with MOG-induced EAE; assay: MOG-induced experimental autoimmune encephalomyelitis (EAE)
Description: EAE was induced in mice following the method of Feinstein et al. (Feinstein, Galea, et al. 2002) 1) two s.c. injections, one on each flank of the hind legs with 300 μg MOG35-55 peptide in 0.1 ml PBS emulsified in an equal volume of CFA containing 5 mg/ml of Mycobacterium tuberculosis H37RA (Difco, St. Louis, Mo.) were given on Day 0.2) Pertussis toxin (200 ng per mouse in 0.1 ml PBS) was given i.p. immediately and 48 h after first MOG injection. 3) a booster immunization with an identical emulsion, route of administration and location was given on Day 7.
Following the encephalitogenic challenge, mice were monitored daily and neurological impairment was evaluated by clinical score (C.S.) as follows: 0, no clinical signs of EAE; 1, limp tail; 2, flaccid tail and abnormal gait (ataxia and/or paresis of hind limbs); 3, severe hind limb paresis; 4, complete paralysis with hind body; and 5, moribund or death.
Mice were anesthetized, bled, and perfused with 25 ml PBS and 25 ml 4% paraformaldehyde in buffered PBS. Brains and spinal cords were dissected out from 3 mice with a clinical score of 0 and another 3 mice with a clinical score of 4 on day 30 post-immunization. Tissues were post-fixed in 4% paraformaldehyde for another 24 h and then stored in 1×PBS with 0.1% sodium azide. Fixed tissues were embedded in paraffin and 5 μm thick sections were cut from brain, the brain stem and three different levels of spinal cord (cervical, thoracic and lumbar). Sections were stained with hematoxylin/eosin for evidence of inflammation and Luxol fast blue (for demyelination). The severity of inflammation was evaluated using the following criteria: 0, no inflammation; 1, cellular infiltrates only in the perivascular areas and meninges; 2, mild cellular infiltrates only in parenchyma (1-10/section); 3, moderate cellular infiltrates in parenchyma (11-100/section); 4, marked cellular infiltrates in parenchyma (>100 section).
In total, 10 doses of peptides were given.

BV2 microglial cells = tested on: BV2 microglial cells
Description: For suppression of inflammation profiling, each peptide analog was tested at a final concentration of 0.1, […], 1, 3, 5, 10 and 25 μM in an LPS induced BV2 microglial cell release of NO and/or TNFα. […] The modification was a biotin label on the apoE peptide (biotin-[…]-amide) which allows detection with ^125I-streptavidin (ISA, Amersham).
In overview, BV-2 cells are plated in 96 well plates in complete media and then the media is replaced the next day with serum free media or reduced serum (1%) media. […] Each concentration of peptide (standard initial concentrations are 0.1, 0.5, 1, 3, 10 and 25 μM) is added to at least 6 wells of cells (e.g. 6 wells get 0.1 μM peptide, 6 wells get 0.5 μM peptide, etc.) and data are averaged from all 6 wells. […] (2001). Cell viability is also measured with an MTT assay (Laskowitz et al. 2001).

For `N=C(N)NCCC[C@H](N)C(=O)O` [L-Arg], the “Inhibition of mortality vs water alone” value ([1]; WT mice, 12 days of infection) was 42%, the “Inhibition of mortality vs water alone” value ([1]; WT mice, 14 days of infection) was 62% and the “Hazard of death compared with water alone (Cox regression)” value ([1]; WT mice, p<0.0009) was 31%. The “Decrease in colon weight” value ([1]; infected WT mice) was 28%, the Weight loss ([1]; infected WT mice) was “reduced weight loss” and the “Increase in colonic ODC activity” value ([1]; infected WT mice treated with L-Arg) was 40 fold. For the same molecule, the “Increase in colonic polyamines” value ([1]; infected WT mice with L-Arg treatment) was 2.7±0.2 fold, the “Decrease in colon weight” value ([1]; infected iNOS−/− mice given L-Arg) was 68% and the “IFN-γ, TNF-α and IL-1 mRNA in colitis tissues” value ([1]; real-time PCR) was “significant attenuation of these increases”. The “Clinical parameters of DSS colitis” value (mice with DSS colitis; L-Arg (1%)) was “reduction in clinical parameters of colitis” and the “Colonic polyamine levels in DSS colitis” value (mice with DSS colitis; mouse, in vivo) was “enhanced polyamine levels”.

In the case of `N[C@@H](CSCCB(O)O)C(=O)O` [BEC, S-(2-boronoethyl)-L-cysteine], the “Colon wt (% Total Body wt)” value ([1]; WT mice, C. rodentium) is reported as 1.25 ± 0.07^b,d % Total Body wt, the “Histology Score” value ([1]; WT mice, C. rodentium) is reported as 9.25 ± 0.69^b,d and the “Body wt (% Total Body wt)” value ([1]; WT mice, C. rodentium) is reported as 82.4 ± 5.2^a,c % Total Body wt. For the same molecule, the “Colon wt (% Total Body wt)” value ([1]; WT mice, PBS (uninfected)) was 0.42 ± 0.04 % Total Body wt, the “Histology Score” value ([1]; WT mice, PBS (uninfected)) was 0.67 ± 0.17 and the “Body wt (% Total Body wt)” value ([1]; WT mice, PBS (uninfected)) was 110.1 ± 2.2 % Total Body wt. The “Colon histologic injury score” value ([1]; iNOS−/− C. rodentium-infected mice + BEC, n=8, p<0.01) was 6.44±0.98, the Colon weight ([1]; iNOS−/− C. rodentium-infected mice + BEC, p<0.05) was 0.92±0.20 % of total body weight and the “Effect in uninfected control mice” value ([1]; in the drinking water) was “had no effect”. For the same molecule, the “Survival of C. rodentium-infected mice” value ([1]; in the drinking water) was “significant loss of survival” and the “Clinical and histologic parameters of DSS colitis” value (mice with DSS colitis; WT and iNOS−/− mice, data not shown) was “exacerbation of clinical and histologic parameters of colitis”.

In the case of “LLRKRLKRLHSALRVRL (Reverse of COG133) [Reverse Pep.]”, the “LPS/IFN-γ-induced production of NO, TNFα and IL-6” value (peritoneal macrophages; COG133 at 1 μM rather than at 5 μM, P<0.05) is reported as “failed to inhibit this production”, the “MOG-induced production of NO and TNFα” value (peritoneal macrophages; macrophages from C.S. 4 mice, 72 h after MOG 20 μg/ml) is reported as “did not display such an inhibitory effect” and the “Clinical severity of EAE” value ([2]; 1 mg/kg i.v., 10 doses) is reported as “did not improve the behavioral symptoms of EAE”. For the same molecule, the Incidence ([2]; 1 mg/kg i.v., 10 doses) was 10/10, the Mortality ([2]; 1 mg/kg i.v., 10 doses) was 3/10 and the Day of onset ([2]; 1 mg/kg i.v., 10 doses Day 6-22, mean ± SEM) was 17.3 ± 1.12. For the same molecule, the Mortality ([2]; 1 mg/kg i.v., 10 doses, listed as reverse peptide) was 5 of 15, the Mean maximum score ([2]; clinical score 0-5, mean ± SEM) was 3.9 ± 0.31 and the “Suppression of NO and/or TNFα release from LPS treated BV2 cells” value (BV2 microglial cells) was “lacked bioactivity”.
